Measurements from PMC9898755 (The Journal of Biological Chemistry, 2023).

What was measured:
Sec14^V155F = target: T1, Sec14^V155F (Saccharomyces cerevisiae, UniProt P24280, V155F); experiment: [3H]-PtdIns-transfer assay, […] PITP, […] himbacine, […] inhibition; format: biochemical; conditions: read-out: % inhibition at 20 μM
T1 sequence (P24280 2-304 V155F): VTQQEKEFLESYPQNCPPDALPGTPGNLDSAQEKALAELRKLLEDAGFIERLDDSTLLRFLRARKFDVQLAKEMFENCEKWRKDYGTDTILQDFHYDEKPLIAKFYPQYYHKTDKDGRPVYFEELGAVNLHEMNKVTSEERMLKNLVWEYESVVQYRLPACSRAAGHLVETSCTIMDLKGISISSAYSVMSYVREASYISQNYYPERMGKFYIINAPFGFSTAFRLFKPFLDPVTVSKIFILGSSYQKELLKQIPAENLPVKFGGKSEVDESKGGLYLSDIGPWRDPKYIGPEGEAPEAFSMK

Sec14^V154F = target: T2, Sec14^V154F (Saccharomyces cerevisiae, UniProt P24280, V154F); experiment: as above; format: biochemical; conditions: read-out: % inhibition at 20 μM
T2 sequence (P24280 2-304 V154F): T1 sequence (P24280 2-304 V155F)

`C[C@@H]1OC(=O)[C@H]2C[C@H]3CCCC[C@@H]3[C@@H](/C=C/[C@H]3CCC[C@H](C)N3C)[C@@H]12` [himbacine] gave an inhibition at 20 µM (Sec14^V155F) of 73 ± 2.1% and an inhibition at 20 µM (Sec14^V154F) of 71 ± 1.2%.
